# Experiments:
# Format in all cases: cell-based, human
# Settings in all cases: multiple exposure: four applications every 24 h, analyzed 12 h after the last; 30 μM ATL, 100 μM GER, 20 μM LOV
# SREBP-2 (F) = experiment: Western blot protein level in dHepaRG cells
# Experimental: All the treatments were performed in triplicates. Protein concentration was measured using the bicinchoninic acid (BCA) protein assay (Sigma Aldrich, Prague, Czech Republic) according to the manufacturer’s instructions. The proteins were loaded onto a 10% sodium dodecyl sulfate (SDS; w/v)–polyacrylamide gel (with 4% stacking gel) and separated by SDS-PAGE electrophoresis. The proteins were transferred onto a nitrocellulose membrane using wet blot (100 V, 90 min). The membrane blocking was performed in a 5% non-fat dry milk/TRIS-buffered saline-Tween-20 (TBS-T) solution at room temperature for 2 h. Incubation with primary antibodies was accomplished overnight at 10 °C. β-actin was used as housekeeping protein (the list of primary antibodies in Table S2). Afterwards, the membrane was washed with 0.05% TBS-T solution for 6 × 5 min, incubated with respective secondary antibodies conjugated with horseradish peroxidase (bovine anti-rabbit (sc2370, Santa Cruz Biotechnology, Santa Cruz, CA, USA) at room temperature for 1.5 h, and rinsed with TBS-T solution for 6 × 5 min. Visualization of protein bands was carried out using a chemiluminescence kit (GE Healthcare, Buckinghamshire, UK).
# HMGCR mRNA = experiment: RT-qPCR mRNA expression in dHepaRG cells
# Experimental: The mRNA and protein expression changes were measured after a single administration of ALA and GER. Three concentrations were selected for each compound (non-toxic, non-toxic/slightly toxic and toxic). The cholesterol level of the dHepaRG cells was measured after a multiple exposure of the highest non-toxic concentrations of tested compounds. ATL (30 µM) and GER (100 µM) were administered four times every 24 h. The expression changes of genes and proteins related to cholesterol metabolism were measured in both single and multiple exposure experiments.
# All treatments were performed in triplicates and every experiment was performed three times. The cells were washed twice with ice cold phosphate-buffered saline (PBS), scrapped and stored at −80 °C until use. Total RNA from cells was isolated using TriReagent according to the manufacturer’s instructions (Biotech, Prague, Czech Republic). The purified RNA was dissolved in 40 µL of diethyl pyrocarbonate (DEPC)-treated water (0.01% DEPC in HPLC water, autoclaved) and stored at −80 °C. The measurement of absorbance at 260 and 280 nm using the NanoDrop ND-1000 UV–VIS Spectrophotometer (Thermo Fisher Scientific, Pardubice, Czech Republic) was used to determine RNA yields and purity. Subsequently, the RNA (4 µg) was treated with 2 U of DNase I (New England Biolabs, Ipswich, MA, USA) in a final volume of 30 µL for 25 min at 37 °C, 1.5 µL of 0.1 M ethylenediaminetetraacetic acid was added and the DNAse was inactivated by heat (5 min at 75 °C). The solution was diluted to a concentration of 0.1 µg/µL. The DNAse treated RNA was stored at −80 °C until further analyses. […] Fluorescence data were recorded at the end of each amplification step. Relative expression levels of the target genes were calculated as fold changes in triplicates for each group using the 2^−ΔΔCt method by normalization to the geometric mean of the Ct values of Sdha and Ywhaz, which were used as reference genes.
# HMGCS mRNA = experiment: RT-qPCR mRNA expression in dHepaRG cells
# Experimental: Three concentrations were selected for each compound (non-toxic, non-toxic/slightly toxic and toxic). The cholesterol level of the dHepaRG cells was measured after a multiple exposure of the highest non-toxic concentrations of tested compounds. […] The expression changes of genes and proteins related to cholesterol metabolism were measured in both single and multiple exposure experiments.
# All treatments were performed in triplicates and every experiment was performed three times. The cells were washed twice with ice cold phosphate-buffered saline (PBS), scrapped and stored at −80 °C until use. Total RNA from cells was isolated using TriReagent according to the manufacturer’s instructions (Biotech, Prague, Czech Republic). The purified RNA was dissolved in 40 µL of diethyl pyrocarbonate (DEPC)-treated water (0.01% DEPC in HPLC water, autoclaved) and stored at −80 °C. The measurement of absorbance at 260 and 280 nm using the NanoDrop ND-1000 UV–VIS Spectrophotometer (Thermo Fisher Scientific, Pardubice, Czech Republic) was used to determine RNA yields and purity. Subsequently, the RNA (4 µg) was treated with 2 U of DNase I (New England Biolabs, Ipswich, MA, USA) in a final volume of 30 µL for 25 min at 37 °C, 1.5 µL of 0.1 M ethylenediaminetetraacetic acid was added and the DNAse was inactivated by heat (5 min at 75 °C). The solution was diluted to a concentration of 0.1 µg/µL. The DNAse treated RNA was stored at −80 °C until further analyses. The first strand cDNA was synthesized from 800 ng of total RNA and 1 µL of 50 µM random hexamers (Generi Biotech, Hradec Kralove, Czech Republic) using ProtoScript II reverse transcriptase (New England Biolabs, Ipswich, MA, USA). After the initial heat denaturation of total RNA (65 °C for 5 min), 4 µL of 5× ProtoScript II RT Reaction Buffer, 2 µL of 10× dithiothreitol (DTT), 2 µL of deoxynucleotide (dNTP) Mix 5 mM, 3.5 µL of H2O, and 0.5 µL of ProtoScript II 200 U/µL were added and mixed by pipetting. The reactions (20 µL) were incubated for 10 min at 25 °C, for 50 min at 42 °C, and for 5 min at 80 °C. The obtained cDNAs were diluted 1:6 by DEPC water. The qPCR analyses were carried out using QuantStudio 6 Flex (Applied Biosystems, Foster City, CA, USA) with SYBR green I (Xceed qPCR SG Mix, Institute of Applied Biotechnologies, Prague, Czech Republic) detection according to the manufacturer’s protocol. […] Fluorescence data were recorded at the end of each amplification step. Relative expression levels of the target genes were calculated as fold changes in triplicates for each group using the 2^−ΔΔCt method [28] by normalization to the geometric mean of the Ct values of Sdha and Ywhaz, which were used as reference genes.
smiles,measurement,setting,value
"CC[C@H](C)C(=O)O[C@H]1C[C@@H](C)C=C2C=C[C@H](C)[C@H](CC[C@@H]3C[C@@H](O)CC(=O)O3)[C@H]21 [LOV, lovastatin, reference compound]",SREBP-2 (F) protein level,SREBP-2 (F),decreased
same,HMGCR mRNA level,HMGCR mRNA,decreased significantly
same,HMGCS mRNA level,HMGCS mRNA,decreased significantly

# — article PMC7353089, “The Hepatotoxicity of Alantolactone and Germacrone: Their Influence on Cholesterol and Lipid Metabolism in Differentiated HepaRG Cells” (Nutrients, 2020)
